Source: ChEMBL document CHEMBL6134848, “Deuteration Strategy-Inspired Design of Novel Diarylpyrimidine Derivatives as Potent Non-Nucleoside Reverse Transcriptase Inhibitors Featuring Improved Efficacy, Selectivity, and Druggability” (J Med Chem, 2025)

Assays:
[1] = Metabolic stability in human liver microsomes assessed as half life at 1 uM measured up to 45 mins by LC/MS/MS analysis; format: ADME, Microsome
[2] = Cytotoxicity against human MT4 cells assessed as reduction in cell viability by MTT assay; format: toxicity, cell-based
[3] = test system: Human immunodeficiency virus 1; assay: Antiviral activity against drug-resistant HIV-1 harboring RT L100I mutant infected in human MT4 cells assessed as protection against virus-induced cytopathicity measured after 5 days post-infection by MTT assay; format: functional, organism-based; settings: Human immunodeficiency virus 1, MT4, 120 h
[4] = test system: Human immunodeficiency virus 1; assay: Antiviral activity against drug-resistant HIV-1 harboring RT Y188L mutant infected in human MT4 cells assessed as protection against virus-induced cytopathicity measured after 5 days post-infection by MTT assay; format: functional, organism-based; settings: Human immunodeficiency virus 1, MT4, 120 h
[5] = test system: Human immunodeficiency virus 1; assay: Antiviral activity against drug-resistant HIV-1 harboring RT RES056 mutant infected in human MT4 cells assessed as protection against virus-induced cytopathicity measured after 5 days post-infection by MTT assay; format: functional, organism-based; settings: Human immunodeficiency virus 1, MT4, 120 h
[6] = test system: Human immunodeficiency virus 1; assay: Antiviral activity against drug-resistant HIV-1 harboring RT F227L/V106A mutant infected in human MT4 cells assessed as protection against virus-induced cytopathicity measured after 5 days post-infection by MTT assay; format: functional, organism-based; settings: Human immunodeficiency virus 1, MT4, 120 h
[7] = test system: Human immunodeficiency virus 1; assay: Antiviral activity against drug-resistant HIV-1 harboring RT K103N mutant infected in human MT4 cells assessed as protection against virus-induced cytopathicity measured after 5 days post-infection by MTT assay; format: functional, organism-based; settings: Human immunodeficiency virus 1, MT4, 120 h
[8] = Drug metabolism in rat liver microsomes assessed as metabolic fraction at 1 uM measured up to 45 mins by LC/MS/MS analysis; format: ADME, Microsome; settings: 0.75 h
[9] = test system: Human immunodeficiency virus 1; assay: Antiviral activity against wild-type HIV-1 IIIB infected in human MT4 cells assessed as protection against virus-induced cytopathicity measured after 5 days post-infection by MTT assay; format: functional, organism-based; settings: Human immunodeficiency virus 1, IIIB, MT4, 120 h
[10] = Drug metabolism in dog liver microsomes assessed as metabolic fraction at 1 uM measured up to 45 mins by LC/MS/MS analysis; format: ADME, Canis lupus familiaris, Microsome; settings: liver microsomes, read-out: Fm
[11] = Metabolic stability in rat liver microsomes assessed as half life at 1 uM measured up to 45 mins by LC/MS/MS analysis; format: ADME, Microsome; settings: 0.75 h
[12] = Drug metabolism in human liver microsomes assessed as metabolic fraction at 1 uM measured up to 45 mins by LC/MS/MS analysis; format: ADME, Microsome; settings: liver microsomes, read-out: Fm
[13] = test system: Human immunodeficiency virus 1; assay: Antiviral activity against drug-resistant HIV-1 harboring RT E138K mutant infected in human MT4 cells assessed as protection against virus-induced cytopathicity measured after 5 days post-infection by MTT assay; format: functional, organism-based; settings: Human immunodeficiency virus 1, MT4, 120 h
[14] = test system: Human immunodeficiency virus 1; assay: Antiviral activity against drug-resistant HIV-1 harboring RT Y181C mutant infected in human MT4 cells assessed as protection against virus-induced cytopathicity measured after 5 days post-infection by MTT assay; format: functional, organism-based; settings: Human immunodeficiency virus 1, MT4, 120 h
[15] = Metabolic stability in dog liver microsomes assessed as half life at 1 uM measured up to 45 mins by LC/MS/MS analysis; format: ADME, Canis lupus familiaris, Microsome; settings: liver microsomes
[16] = target: Human immunodeficiency virus type 1 reverse transcriptase (Human immunodeficiency virus 1, UniProt Q72547); assay: Inhibition of recombinant wild type HIV-1 reverse transcriptase incubated for 40 mins in presence of poly(rA) template/oligo(dT)16 primer by Pico-Green dye based analysis
[17] = Solubility of compound at pH 7; format: physicochemical; settings: buffer
[18] = Protein binding in human plasma assessed as drug recovery rate at 1 uM incubated for 6 hrs; format: ADME, cell-free; settings: read-out: Drug recovery

| Structure (SMILES) | half-life at 1 µM ([1]; liver microsomes) [min] | t1/2 ([1]; microsomes, 0.75 h, 1 µM) [min] | CC50 [2] [nM] | EC50 [3] [nM] | EC50 [4] [nM] | EC50 [5] [nM] | EC50 [6] [nM] | EC50 [7] [nM] | Fm [8] [%] | EC50 [9] [nM] | metabolised at 0.75 h, 1 µM [10] [%] | t1/2 [11] [min] | metabolised at 0.75 h, 1 µM [12] [%] | EC50 [13] [nM] | EC50 [14] [nM] | half-life at 1 µM [15] [min] | IC50 [16] [nM] | solubility [17] [µg/mL] | recovery at 6 h, 1 µM [18] [%] |
| --- | --- | --- | --- | --- | --- | --- | --- | --- | --- | --- | --- | --- | --- | --- | --- | --- | --- | --- | --- |
| Cc1cc(/C=C/C#N)cc(C)c1Nc1ccnc(Nc2ccc(C#N)cc2)n1 [RILPIVIRINE] | 16 | 16 | 6800 | 2.05 | 54 | 12.4 | 50.8 | 0.89 | 13.3 | 1.27 | 44.8 | 7.3 | 13 | 3.14 | 2.66 | 79.3 | 20 |  |  |
| Cc1cc(C#N)cc(C)c1Oc1nc(Nc2ccc(C#N)cc2)nc(N)c1Br [ETRAVIRINE] |  |  | > 4600 | 4.22 |  | 36.5 |  |  |  |  |  |  |  | 10.3 |  |  |  | < 1 |  |
| CC(=O)CC(c1ccccc1)c1c(O)c2ccccc2oc1=O (stereo not drawn) [WARFARIN] |  |  |  |  |  |  |  |  |  |  |  |  |  |  |  |  |  |  | 96.9 |
